ChEMBL document CHEMBL1201862, “PubChem BioAssay data set” (2004)
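Where inhibition never reached the appropriate level, the endpoint shown equals the highest concentration tested. Otherwise, values were interpolated linearly from a five-concentration, 48-hour dose response in 96-well plates. GI50 = concentration required for 50% inhibition of growth.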 Activity calls are given as the source filed them. Rule as the data show it: active = GI50 up to about 1.1 µM and inactive = higher.

Tests used:
Experiment in all cases: NCI-60 cell line screen, 48 h
A498 = tested on: A498
A549 = tested on: A549
ACHN = tested on: ACHN
BT-549 = tested on: BT-549
CAKI-1 = tested on: CAKI-1
CCRF-CEM = tested on: CCRF-CEM
HL-60 = tested on: HL-60
HT-29 = tested on: HT-29
Hs-578T = tested on: Hs-578T
KM12 = tested on: KM12
LOX IMVI = tested on: LOX IMVI
MCF7 = tested on: MCF7
MDA-MB-435 = tested on: MDA-MB-435
MOLT-4 = tested on: MOLT-4
NCI-H460 = tested on: NCI-H460
RPMI-8226 = tested on: RPMI-8226
SK-MEL-5 = tested on: SK-MEL-5
SNB-19 = tested on: SNB-19
TK-10 = tested on: TK-10
M14 = tested on: M14

Measured: GI50

O=C(NCCc1ccccc1)c1c(O)nc2ccccc2c1O
inactive: A498 > 100 µM | A549 > 100 µM | ACHN > 100 µM | BT-549 > 100 µM | CAKI-1 > 100 µM | CCRF-CEM > 100 µM | HL-60 > 100 µM | HT-29 > 100 µM | Hs-578T > 100 µM | KM12 > 100 µM | LOX IMVI > 100 µM | MCF7 > 100 µM | MDA-MB-435 > 100 µM | MOLT-4 > 100 µM | NCI-H460 > 100 µM | RPMI-8226 > 100 µM | SK-MEL-5 > 100 µM | SNB-19 > 100 µM | TK-10 > 100 µM

c1ccc2c(c1)C(=Nc1ccc(N=C3c4ccccc4-c4ccccc43)cc1)c1ccccc1-2
inactive: A498 > 100 µM | A549 > 100 µM | BT-549 > 100 µM | CAKI-1 > 100 µM | CCRF-CEM > 100 µM | HL-60 54.1 µM | HT-29 > 100 µM | Hs-578T > 100 µM | KM12 > 100 µM | LOX IMVI > 100 µM | M14 > 100 µM | MCF7 > 100 µM | MDA-MB-435 > 100 µM | MOLT-4 > 100 µM | NCI-H460 > 100 µM | RPMI-8226 > 100 µM | SK-MEL-5 > 100 µM | SNB-19 > 100 µM | TK-10 > 100 µM

C[C@@]12C[C@@H](c3ccccc3O1)N1CCCSC1=N2
inactive: A498 > 100 µM | ACHN > 100 µM | BT-549 > 100 µM | CAKI-1 > 100 µM | CCRF-CEM > 100 µM | HL-60 > 100 µM | HT-29 > 100 µM | Hs-578T > 100 µM | KM12 > 100 µM | LOX IMVI > 100 µM | M14 > 100 µM | MCF7 > 100 µM | MDA-MB-435 > 100 µM | MOLT-4 > 100 µM | NCI-H460 > 100 µM | RPMI-8226 > 100 µM | SK-MEL-5 > 100 µM | SNB-19 > 100 µM | TK-10 > 100 µM

COC(=O)C(Cc1ccccc1)NC(=O)C(CCC(=O)OCc1ccccc1)NC(=O)OC(C)(C)C (centres undefined)
inactive: A498 > 100 µM | A549 > 100 µM | ACHN 68.9 µM | BT-549 > 100 µM | CAKI-1 > 100 µM | CCRF-CEM 64.9 µM | HL-60 54.8 µM | HT-29 35.6 µM | Hs-578T > 100 µM | KM12 83.9 µM | LOX IMVI 30.3 µM | M14 > 100 µM | MCF7 82.8 µM | MDA-MB-435 > 100 µM | MOLT-4 > 100 µM | NCI-H460 30.5 µM | RPMI-8226 25 µM | SK-MEL-5 > 100 µM | SNB-19 > 100 µM | TK-10 > 100 µM

CC1=C(C)C(=O)OC(C(C)(O)C2(O)CCC3(O)C4CC(Cl)C5(O)C(O)C=CC(=O)C5(C)C4CCC32C)C1 (centres undefined)
inactive: A498 52.6 µM | A549 69.3 µM | ACHN 42.1 µM | BT-549 46.3 µM | CAKI-1 12.2 µM | CCRF-CEM 14.1 µM | HL-60 4.15 µM | HT-29 15.9 µM | Hs-578T 66.4 µM | KM12 25.6 µM | LOX IMVI 14.9 µM | M14 40.3 µM | MCF7 8.85 µM | MDA-MB-435 18.7 µM | MOLT-4 10.1 µM | NCI-H460 36.1 µM | RPMI-8226 8.99 µM | SNB-19 49.8 µM | TK-10 34.3 µM

COc1cc(/C=C2\CC3C4CC=C5C[C@@H](O)CC[C@]5(C)C4CC[C@]3(C)\C2=N\O)cc(OC)c1OC (some centres undefined)
inactive: A498 6.93 µM | A549 4.65 µM | ACHN 3.2 µM | BT-549 7 µM | CAKI-1 3.94 µM | CCRF-CEM 6.44 µM | HL-60 4.61 µM | HT-29 5.51 µM | Hs-578T 4.42 µM | KM12 2.54 µM | LOX IMVI 5.48 µM | M14 10.5 µM | MCF7 3.21 µM | MDA-MB-435 5.12 µM | MOLT-4 29.2 µM | NCI-H460 4.99 µM | RPMI-8226 10.4 µM | SK-MEL-5 4.4 µM | SNB-19 21.3 µM | TK-10 7.53 µM

N#CC12CC=C(c3ccccc3)N=C1NC(c1ccccc1)=CC2 (centres undefined)
inactive: A498 23.2 µM | A549 54 µM | ACHN 57.4 µM | BT-549 40.6 µM | CCRF-CEM 32.2 µM | HL-60 22.4 µM | HT-29 57.3 µM | Hs-578T > 100 µM | KM12 51.5 µM | LOX IMVI 30.8 µM | M14 42.1 µM | MCF7 50 µM | MDA-MB-435 35.6 µM | MOLT-4 21.8 µM | NCI-H460 57.5 µM | RPMI-8226 28.8 µM | SK-MEL-5 19 µM | SNB-19 90.8 µM | TK-10 > 100 µM

[N-]=[N+]=CC(=O)C1CCN(c2ccccc2)C1=O (centres undefined)
inactive: A498 > 10 µM | A549 > 10 µM | ACHN > 10 µM | BT-549 > 10 µM | CAKI-1 > 10 µM | CCRF-CEM > 10 µM | HL-60 > 10 µM | HT-29 > 10 µM | Hs-578T > 10 µM | KM12 > 10 µM | LOX IMVI > 10 µM | M14 > 10 µM | MCF7 > 10 µM | MDA-MB-435 > 10 µM | MOLT-4 > 10 µM | NCI-H460 > 10 µM | RPMI-8226 > 10 µM | SK-MEL-5 > 10 µM | SNB-19 > 10 µM | TK-10 > 10 µM

CC1(C)O[C@@H]2[C@@H]3OC(=O)C[C@@H]3[C@@H](COCc3ccccc3)[C@@H]2O1
inactive: A498 > 100 µM | A549 > 100 µM | ACHN > 100 µM | BT-549 > 100 µM | CAKI-1 > 100 µM | CCRF-CEM > 100 µM | HL-60 > 100 µM | HT-29 > 100 µM | Hs-578T > 100 µM | KM12 > 100 µM | LOX IMVI > 100 µM | M14 > 100 µM | MCF7 > 100 µM | MDA-MB-435 > 100 µM | MOLT-4 > 100 µM | NCI-H460 > 100 µM | RPMI-8226 > 100 µM | SK-MEL-5 > 100 µM | SNB-19 > 100 µM | TK-10 > 100 µM

CC(C)CCCC(C)[C@H]1CC[C@H]2n3c(nc4ccccc43)CCC[C@]12C (some centres undefined)
inactive: A498 13.2 µM | A549 20.1 µM | BT-549 19.2 µM | CAKI-1 17.1 µM | CCRF-CEM 18.3 µM | HL-60 13.6 µM | HT-29 8.79 µM | Hs-578T 26.9 µM | KM12 19.7 µM | LOX IMVI 32.7 µM | M14 16.2 µM | MCF7 14.2 µM | MDA-MB-435 19.3 µM | MOLT-4 16.1 µM | NCI-H460 15.9 µM | RPMI-8226 10.8 µM | SK-MEL-5 16.4 µM | SNB-19 19.4 µM | TK-10 17.4 µM
